The supplement of paper PMC10307832

Columns and labels:
Assay in all cases: relative viability (nuclei count vs DMSO), 5 days (fraction); higher = more cells survive
A-427 = test system: A-427
Procedure, shortened: (§1)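 Nuclei were stained with Hoechst during a one-step fixation (final 0.05% Triton X-100, 1% formaldehyde, 1 ug/ml Hoechst) carried out 5 days after dosing, then counted on 4× images. The cells, lung cancer lines in 1536-well plates, had been dosed by pin tool the day after seeding with one drug alone or a fixed anchor-drug dose plus five library-drug doses (not always all listed) in √10 steps. Relative viability is the nuclei count in treated wells divided by that in vehicle wells, and each value is the median of duplicate plates.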

COR-L 105 = test system: COR-L 105
Procedure, shortened: as §1

ChaGo-K-1 = test system: ChaGo-K-1
Procedure, shortened: as §1

EKVX = test system: EKVX
Procedure, shortened: as §1

EMC-BAC-2 = test system: EMC-BAC-2
Procedure, shortened: as §1

H3255 = test system: H3255
Procedure, shortened: as §1

HCC-366 = test system: HCC-366
Procedure, shortened: as §1

LK-2 = test system: LK-2
Procedure, shortened: as §1

LOU-NH91 = test system: LOU-NH91
Procedure, shortened: as §1

NCI-H1666 = test system: NCI-H1666
Procedure, shortened: as §1

NCI-H1734 = test system: NCI-H1734
Procedure, shortened: as §1

NCI-H1755 = test system: NCI-H1755
Procedure, shortened: as §1

NCI-H1975 = test system: NCI-H1975
Procedure, shortened: as §1

NCI-H2170 = test system: NCI-H2170
Procedure, shortened: as §1

NCI-H23 = test system: NCI-H23
Procedure, shortened: as §1

NCI-H441 = test system: NCI-H441
Procedure, shortened: as §1

NCI-H520 = test system: NCI-H520
Procedure, shortened: as §1

NCI-H596 = test system: NCI-H596
Procedure, shortened: as §1

PC-3 [JPC-3] = test system: PC-3 [JPC-3]
Procedure, shortened: as §1

SK-MES-1 = test system: SK-MES-1
Procedure, shortened: as §1

SW 900 = test system: SW 900
Procedure, shortened: as §1

How did the relative viability (A-427; first compound 0.0002 µM) turn out when `CC(=O)O[C@@]12CO[C@@H]1C[C@H](O)[C@@]1(C)C(=O)[C@H](O)C3=C(C)[C@@H](OC(=O)[C@H](O)[C@@H](NC(=O)OC(C)(C)C)c4ccccc4)C[C@@](O)([C@@H](OC(=O)c4ccccc4)[C@H]21)C3(C)C` [Docetaxel] + Nc1ncn([C@H]2C[C@H](O)[C@@H](CO)O2)c(=O)n1 [Decitabine] (partner 2 µM) was run?
The relative viability was 0.568.

And the relative viability (A-427; first compound 0.000632 µM)?
The relative viability was 0.569.

What about the relative viability (A-427; first compound 0.002 µM) of the same compound?
Its relative viability is 0.443.

What about the relative viability (A-427; first compound 0.006325 µM) of the same compound?
The relative viability was 0.3.

What about the relative viability (A-427; first compound 0.02 µM) of the same compound?
The relative viability was 0.222.

What about the relative viability (COR-L 105; first compound 0.0002 µM) of the same compound?
The relative viability was 0.666.

What about the relative viability (COR-L 105; first compound 0.000632 µM) of the same compound?
Its relative viability is 0.533.

What about the relative viability (COR-L 105; first compound 0.002 µM) of the same compound?
Its relative viability is 0.442.

What about the relative viability (COR-L 105; first compound 0.006325 µM) of the same compound?
Its relative viability is 0.394.

What about the relative viability (COR-L 105; first compound 0.02 µM) of the same compound?
Its relative viability is 0.364.

And the relative viability (ChaGo-K-1; first compound 0.0002 µM)?
Its relative viability is 0.461.

What about the relative viability (ChaGo-K-1; first compound 0.000632 µM) of the same compound?
The relative viability was 0.548.

And the relative viability (ChaGo-K-1; first compound 0.002 µM)?
Its relative viability is 0.381.

And the relative viability (ChaGo-K-1; first compound 0.006325 µM)?
Its relative viability is 0.276.

And the relative viability (ChaGo-K-1; first compound 0.02 µM)?
Its relative viability is 0.21.

What about the relative viability (EKVX; first compound 0.0002 µM) of the same compound?
The relative viability was 0.279.

And the relative viability (EKVX; first compound 0.000632 µM)?
Its relative viability is 0.327.

And the relative viability (EKVX; first compound 0.002 µM)?
The relative viability was 0.26.

And the relative viability (EKVX; first compound 0.006325 µM)?
The relative viability was 0.198.

What about the relative viability (EKVX; first compound 0.02 µM) of the same compound?
Its relative viability is 0.134.

And the relative viability (EMC-BAC-2; first compound 0.0002 µM)?
The relative viability was 0.947.

And the relative viability (EMC-BAC-2; first compound 0.000632 µM)?
The relative viability was 0.811.

And the relative viability (EMC-BAC-2; first compound 0.002 µM)?
Its relative viability is 0.461.

And the relative viability (EMC-BAC-2; first compound 0.006325 µM)?
The relative viability was 0.46.

And the relative viability (EMC-BAC-2; first compound 0.02 µM)?
Its relative viability is 0.299.

What about the relative viability (H3255; first compound 0.0002 µM) of the same compound?
Its relative viability is 0.734.

What about the relative viability (H3255; first compound 0.000632 µM) of the same compound?
The relative viability was 0.566.

What about the relative viability (H3255; first compound 0.002 µM) of the same compound?
Its relative viability is 0.335.

What about the relative viability (H3255; first compound 0.006325 µM) of the same compound?
The relative viability was 0.31.

And the relative viability (H3255; first compound 0.02 µM)?
Its relative viability is 0.27.

What about the relative viability (HCC-366; first compound 0.0002 µM) of the same compound?
Its relative viability is 0.292.

And the relative viability (HCC-366; first compound 0.000632 µM)?
Its relative viability is 0.12.

And the relative viability (HCC-366; first compound 0.002 µM)?
The relative viability was 0.107.

And the relative viability (HCC-366; first compound 0.006325 µM)?
The relative viability was 0.0547.

And the relative viability (HCC-366; first compound 0.02 µM)?
The relative viability was 0.0292.

What about the relative viability (LK-2; first compound 0.0002 µM) of the same compound?
Its relative viability is 0.348.

What about the relative viability (LK-2; first compound 0.000632 µM) of the same compound?
Its relative viability is 0.224.

What about the relative viability (LK-2; first compound 0.002 µM) of the same compound?
The relative viability was 0.115.

And the relative viability (LK-2; first compound 0.006325 µM)?
Its relative viability is 0.126.

And the relative viability (LK-2; first compound 0.02 µM)?
The relative viability was 0.13.

And the relative viability (LOU-NH91; first compound 0.0002 µM)?
The relative viability was 0.822.

What about the relative viability (LOU-NH91; first compound 0.000632 µM) of the same compound?
Its relative viability is 0.841.

And the relative viability (LOU-NH91; first compound 0.002 µM)?
Its relative viability is 0.621.

And the relative viability (LOU-NH91; first compound 0.006325 µM)?
Its relative viability is 0.518.

What about the relative viability (LOU-NH91; first compound 0.02 µM) of the same compound?
Its relative viability is 0.379.

What about the relative viability (NCI-H1666; first compound 0.0002 µM) of the same compound?
The relative viability was 0.594.

What about the relative viability (NCI-H1666; first compound 0.000632 µM) of the same compound?
Its relative viability is 0.64.

And the relative viability (NCI-H1666; first compound 0.002 µM)?
The relative viability was 0.504.

What about the relative viability (NCI-H1666; first compound 0.006325 µM) of the same compound?
The relative viability was 0.477.

What about the relative viability (NCI-H1666; first compound 0.02 µM) of the same compound?
The relative viability was 0.425.

What about the relative viability (NCI-H1734; first compound 0.0002 µM) of the same compound?
The relative viability was 0.492.

And the relative viability (NCI-H1734; first compound 0.000632 µM)?
Its relative viability is 0.431.

And the relative viability (NCI-H1734; first compound 0.002 µM)?
Its relative viability is 0.359.

What about the relative viability (NCI-H1734; first compound 0.006325 µM) of the same compound?
The relative viability was 0.307.

What about the relative viability (NCI-H1734; first compound 0.02 µM) of the same compound?
The relative viability was 0.218.

And the relative viability (NCI-H1755; first compound 0.0002 µM)?
The relative viability was 0.772.

What about the relative viability (NCI-H1755; first compound 0.000632 µM) of the same compound?
The relative viability was 0.788.

And the relative viability (NCI-H1755; first compound 0.002 µM)?
Its relative viability is 0.604.

What about the relative viability (NCI-H1755; first compound 0.006325 µM) of the same compound?
The relative viability was 0.463.

And the relative viability (NCI-H1755; first compound 0.02 µM)?
The relative viability was 0.507.

And the relative viability (NCI-H1975; first compound 0.0002 µM)?
The relative viability was 0.37.

What about the relative viability (NCI-H1975; first compound 0.000632 µM) of the same compound?
Its relative viability is 0.389.

And the relative viability (NCI-H1975; first compound 0.002 µM)?
The relative viability was 0.223.

And the relative viability (NCI-H1975; first compound 0.006325 µM)?
The relative viability was 0.177.

And the relative viability (NCI-H1975; first compound 0.02 µM)?
The relative viability was 0.122.

And the relative viability (NCI-H2170; first compound 0.0002 µM)?
Its relative viability is 0.472.

And the relative viability (NCI-H2170; first compound 0.000632 µM)?
The relative viability was 0.437.

And the relative viability (NCI-H2170; first compound 0.002 µM)?
Its relative viability is 0.371.

What about the relative viability (NCI-H2170; first compound 0.006325 µM) of the same compound?
The relative viability was 0.172.

What about the relative viability (NCI-H2170; first compound 0.02 µM) of the same compound?
Its relative viability is 0.151.

What about the relative viability (NCI-H23; first compound 0.0002 µM) of the same compound?
The relative viability was 0.33.

And the relative viability (NCI-H23; first compound 0.000632 µM)?
The relative viability was 0.303.

And the relative viability (NCI-H23; first compound 0.002 µM)?
Its relative viability is 0.253.

What about the relative viability (NCI-H23; first compound 0.006325 µM) of the same compound?
The relative viability was 0.256.

What about the relative viability (NCI-H23; first compound 0.02 µM) of the same compound?
Its relative viability is 0.157.

What about the relative viability (NCI-H441; first compound 0.0002 µM) of the same compound?
The relative viability was 0.25.

And the relative viability (NCI-H441; first compound 0.000632 µM)?
The relative viability was 0.234.

What about the relative viability (NCI-H441; first compound 0.002 µM) of the same compound?
Its relative viability is 0.178.

What about the relative viability (NCI-H441; first compound 0.006325 µM) of the same compound?
The relative viability was 0.2.

And the relative viability (NCI-H441; first compound 0.02 µM)?
Its relative viability is 0.163.

And the relative viability (NCI-H520; first compound 0.0002 µM)?
Its relative viability is 0.454.

And the relative viability (NCI-H520; first compound 0.000632 µM)?
The relative viability was 0.465.

What about the relative viability (NCI-H520; first compound 0.002 µM) of the same compound?
Its relative viability is 0.333.

What about the relative viability (NCI-H520; first compound 0.006325 µM) of the same compound?
The relative viability was 0.249.

What about the relative viability (NCI-H596; first compound 0.0002 µM) of the same compound?
The relative viability was 1.02.

And the relative viability (NCI-H596; first compound 0.000632 µM)?
Its relative viability is 1.01.

And the relative viability (NCI-H596; first compound 0.002 µM)?
The relative viability was 1.02.

And the relative viability (NCI-H596; first compound 0.006325 µM)?
The relative viability was 0.639.

What about the relative viability (NCI-H596; first compound 0.02 µM) of the same compound?
The relative viability was 0.372.

And the relative viability (PC-3 [JPC-3]; first compound 0.0002 µM)?
The relative viability was 0.816.

And the relative viability (PC-3 [JPC-3]; first compound 0.000632 µM)?
The relative viability was 0.849.

What about the relative viability (PC-3 [JPC-3]; first compound 0.002 µM) of the same compound?
Its relative viability is 0.666.

What about the relative viability (PC-3 [JPC-3]; first compound 0.006325 µM) of the same compound?
The relative viability was 0.5.

What about the relative viability (PC-3 [JPC-3]; first compound 0.02 µM) of the same compound?
Its relative viability is 0.294.

And the relative viability (SK-MES-1; first compound 0.0002 µM)?
The relative viability was 0.375.

What about the relative viability (SK-MES-1; first compound 0.000632 µM) of the same compound?
The relative viability was 0.381.

What about the relative viability (SK-MES-1; first compound 0.002 µM) of the same compound?
Its relative viability is 0.347.

What about the relative viability (SK-MES-1; first compound 0.02 µM) of the same compound?
The relative viability was 0.164.

What about the relative viability (SW 900; first compound 0.0002 µM) of the same compound?
The relative viability was 0.485.

And the relative viability (SW 900; first compound 0.000632 µM)?
Its relative viability is 0.344.

What about the relative viability (SW 900; first compound 0.002 µM) of the same compound?
Its relative viability is 0.323.

What about the relative viability (SW 900; first compound 0.006325 µM) of the same compound?
The relative viability was 0.296.

And the relative viability (SW 900; first compound 0.02 µM)?
The relative viability was 0.212.
